In ChEMBL document CHEMBL1135371, “Synthesis and pharmacology of isoquinuclidine derivatives as 5-HT(3) ligands” (Bioorg Med Chem Lett, 2002):

Assays:
[1] = target: T1, Serotonin 3 (5-HT3) receptor (Rattus norvegicus, UniProt P35563+Q9JJ16); experiment: Binding affinity towards 5-HT3 receptor in rat was evaluated
T1 sequence (P35563 whole entry): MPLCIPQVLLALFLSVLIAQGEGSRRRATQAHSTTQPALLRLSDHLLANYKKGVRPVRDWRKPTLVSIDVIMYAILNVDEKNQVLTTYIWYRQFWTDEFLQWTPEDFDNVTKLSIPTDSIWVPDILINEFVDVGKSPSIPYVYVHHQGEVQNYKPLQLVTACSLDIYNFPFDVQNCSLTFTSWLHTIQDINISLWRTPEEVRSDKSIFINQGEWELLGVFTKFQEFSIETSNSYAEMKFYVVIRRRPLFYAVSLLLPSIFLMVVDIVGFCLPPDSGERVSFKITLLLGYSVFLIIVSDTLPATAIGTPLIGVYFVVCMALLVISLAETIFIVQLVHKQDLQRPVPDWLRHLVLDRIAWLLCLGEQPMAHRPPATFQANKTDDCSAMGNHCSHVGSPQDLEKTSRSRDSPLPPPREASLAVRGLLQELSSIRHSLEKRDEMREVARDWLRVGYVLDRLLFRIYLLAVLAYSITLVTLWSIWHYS
T1 sequence (Q9JJ16 whole entry): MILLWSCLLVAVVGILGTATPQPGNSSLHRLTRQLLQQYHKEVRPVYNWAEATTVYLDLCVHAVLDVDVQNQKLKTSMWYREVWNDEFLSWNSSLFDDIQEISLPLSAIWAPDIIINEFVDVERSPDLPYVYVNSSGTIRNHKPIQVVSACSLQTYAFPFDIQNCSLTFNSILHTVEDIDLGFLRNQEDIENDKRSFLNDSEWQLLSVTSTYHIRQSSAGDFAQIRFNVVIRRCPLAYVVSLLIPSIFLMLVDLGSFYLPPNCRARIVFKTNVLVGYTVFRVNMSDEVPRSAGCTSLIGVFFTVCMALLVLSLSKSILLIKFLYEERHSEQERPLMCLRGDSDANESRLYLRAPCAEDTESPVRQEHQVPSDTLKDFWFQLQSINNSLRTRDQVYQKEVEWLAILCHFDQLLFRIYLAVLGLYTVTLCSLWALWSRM

D(2) dopamine receptor [2] = target: T2, D(2) dopamine receptor (Rattus norvegicus, UniProt P61169); experiment: Binding affinity towards D2 receptor in rat was evaluated
T2 sequence (P61169 whole entry): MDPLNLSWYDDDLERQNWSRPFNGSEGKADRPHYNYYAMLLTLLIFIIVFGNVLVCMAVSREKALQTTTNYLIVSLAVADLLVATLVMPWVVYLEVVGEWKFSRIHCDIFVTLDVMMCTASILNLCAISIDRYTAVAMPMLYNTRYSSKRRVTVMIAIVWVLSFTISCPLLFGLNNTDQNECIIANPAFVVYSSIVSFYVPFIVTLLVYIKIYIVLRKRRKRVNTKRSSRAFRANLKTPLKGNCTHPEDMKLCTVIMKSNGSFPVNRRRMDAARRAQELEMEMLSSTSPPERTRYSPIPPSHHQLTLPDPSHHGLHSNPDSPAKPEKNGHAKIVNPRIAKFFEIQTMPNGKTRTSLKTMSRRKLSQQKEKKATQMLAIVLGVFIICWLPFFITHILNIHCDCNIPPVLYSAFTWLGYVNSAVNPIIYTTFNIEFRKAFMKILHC

[3] = target: T3, 5-hydroxytryptamine receptor 4 (Cavia porcellus, UniProt O70528); experiment: Binding affinity towards 5-HT4 receptor in striatum membranes of guinea-pig brain was evaluated; assay type: cell membranes, Membrane
T3 sequence (O70528 whole entry): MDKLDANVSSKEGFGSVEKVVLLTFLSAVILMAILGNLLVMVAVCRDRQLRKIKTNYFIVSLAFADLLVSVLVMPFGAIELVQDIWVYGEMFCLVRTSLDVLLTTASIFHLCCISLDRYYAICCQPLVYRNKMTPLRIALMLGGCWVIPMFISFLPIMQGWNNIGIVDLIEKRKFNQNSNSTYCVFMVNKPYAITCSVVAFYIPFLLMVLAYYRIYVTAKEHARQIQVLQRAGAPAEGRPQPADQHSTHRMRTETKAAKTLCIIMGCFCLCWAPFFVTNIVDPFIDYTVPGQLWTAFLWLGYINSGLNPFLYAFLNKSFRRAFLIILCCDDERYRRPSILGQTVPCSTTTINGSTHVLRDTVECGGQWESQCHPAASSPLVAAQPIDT

D(2) dopamine receptor [4] = target: T2, D(2) dopamine receptor; experiment: Binding affinity towards Dopamine receptor D2 in rat was evaluated
[5] = target: T3, 5-hydroxytryptamine receptor 4; experiment: Binding affinity towards 5-hydroxytryptamine 4 receptor in striatum membranes of guinea-pig brain was evaluated; assay type: cell membranes, Membrane
[6] = target: T1, Serotonin 3 (5-HT3) receptor; experiment: Binding affinity towards rat 5-hydroxytryptamine 3 receptor was evaluated; assay type: protein-complex assay

Ki [1] [nM] | IC50 (D(2) dopamine receptor [2]) [nM] | IC50 [3] [nM] | IC50 [1] [nM] | IC50 (D(2) dopamine receptor [4]) [nM] | IC50 [5] [nM] | SMILES | further results
192 | > 1000 | > 1000 |  |  |  | COc1cc(N)c(Cl)cc1C(=O)OC1CC2CCC1N(C)C2 (stereo in doubt; syn) | 
 |  | 1000 | 1000 |  |  | COc1cc(N)c(Cl)cc1C(=O)NC1CC2CCC1CN2C (stereo in doubt; syn) | Ki (D(2) dopamine receptor [2]): 842 nM
 |  |  | 17300 |  | > 1000 | COc1cc(N)c(Cl)cc1C(=O)NC1CC2CCC1CN2C (stereo in doubt; anti) | Ki (D(2) dopamine receptor [4]): 130 nM
11.2 | > 1000 |  |  |  |  | COc1cc(N)c(Cl)cc1C(=O)OC1CC2CCC1CN2C (stereo in doubt; syn) | Ki [3]: 240 nM
 |  |  |  | > 1000 |  | CN1[C@@H]2CC[C@H]1C[C@@H](OC(=O)c1c[nH]c3ccccc13)C2 [TROPISETRON] | Ki [5]: 125 nM; Ki [6]: 1.55 nM
5.19 |  |  |  | > 1000 |  | COc1cc(N)c(Cl)cc1C(=O)OC1CC2CCC1CN2C (stereo in doubt; anti) | Ki [5]: 82.6 nM
13.8 |  |  |  | > 1000 | > 1000 | COc1cc(N)c(Cl)cc1C(=O)OC1CC2CCC1N(C)C2 (stereo in doubt; anti) | 
 | > 1000 | > 1000 |  |  |  | CN1C2CCCC1CC(NC(=O)c1nn(C)c3ccccc13)C2 (centres undefined) [GRANISETRON] | 

SMILES | Ki [1] [nM] | IC50 (D(2) dopamine receptor [2]) [nM] | IC50 [3] [nM] | IC50 [1] [nM] | IC50 (D(2) dopamine receptor [4]) [nM] | IC50 [5] [nM] | further results
COc1cc(N)c(Cl)cc1C(=O)NC1CC2CCC1N(C)C2 (centres undefined) | 327 | 1000 | > 1000 | > 1000 | > 1000 | 1000 | 
